Data on 19 compounds can be found in paper PMC3834327, “N ^6-Substituted AMPs Inhibit Mammalian Deoxynucleotide N-Hydrolase DNPH1” (PLoS ONE, 2013).

Test [1] addresses T1, human DNPH1 (Homo sapiens, UniProt O43598).
T1 sequence (O43598 1-174): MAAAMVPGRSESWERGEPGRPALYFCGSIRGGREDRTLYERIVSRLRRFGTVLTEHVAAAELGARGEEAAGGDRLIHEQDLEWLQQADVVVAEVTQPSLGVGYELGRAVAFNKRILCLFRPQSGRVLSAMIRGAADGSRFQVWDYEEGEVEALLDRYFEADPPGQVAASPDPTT
The test can be described thus: Kinetic parameters of human DNPH1 with 2'-deoxynucleoside 5'-monophosphates as substrates. It is filed as biochemical. Details: made in house; host or cells: E. coli Bli5. As to conditions: substrate of human DNPH1; for Km: double reciprocal plots, five concentrations.

Test [2] has as its target T2, rat DNPH1 (Rattus norvegicus, UniProt O35820).
T2 sequence (O35820 1-163): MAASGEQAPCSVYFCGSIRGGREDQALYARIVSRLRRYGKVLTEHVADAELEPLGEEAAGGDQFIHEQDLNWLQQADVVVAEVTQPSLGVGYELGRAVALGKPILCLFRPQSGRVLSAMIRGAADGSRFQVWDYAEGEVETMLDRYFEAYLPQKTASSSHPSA
The test can be described thus: Kinetic measurements: inhibition of rat DNPH1 activity (dGMP substrate, spectrophotometric).

Test [3] concerns the target T1, human DNPH1. The test can be described thus: Kinetic measurements: inhibition of human DNPH1 activity (dGMP substrate, guanine by RR-HPLC).
Test [4] concerns the target T2, rat DNPH1. The test is described as follows: Isothermal titration calorimetry with rat DNPH1. As to conditions: for -T∆S / ∆G / ∆H / ∆S: ITC, T = 298 K, pH 6.0, rat DNPH1. In general terms: ITC needs no label: the signal is the heat of the interaction.
Test [5] addresses T1, human DNPH1. The test can be described thus: Isothermal titration calorimetry with human DNPH1. The conditions noted are these: for -T∆S / ∆G / ∆H / ∆S: ITC, T = 298 K, pH 6.0, human DNPH1.
Test [6] has as its target T2, rat DNPH1. Details: made in house; host or cells: E. coli Bli5; method as in PMID 20962348. The conditions noted are these: cited from earlier work.

Broadly, the kcat is the number of substrate molecules converted per active site and unit of time at saturation. Usually Km stands for the concentration of substrate that gives half-maximal velocity. For `O=c1[nH]cnc2c1ncn2[C@H]1C[C@H](O)[C@@H](COP(=O)(O)O)O1` [dIMP], on human DNPH1 [1], the kcat is given as 1.6 ± 0.1 10^-3 s^-1 and the Michaelis-Menten constant (Km) came out at 104 ± 19 µM.
What is called Ki is a measure of affinity in units of concentration, obtained from inhibition or displacement. Read a high Ki as a looser hold on the target. For `C/C(=C/CNc1ncnc2c1ncn2[C@@H]1O[C@H](COP(=O)(O)O)[C@@H](O)[C@H]1O)CO` [Compound 3, cis-zeatin riboside 5’-monophosphate], the figures for the inhibition constant (Ki) on rat DNPH1 [2] and on human DNPH1 [3] were 6.1 ± 1.2 µM and 5.6 ± 0.8 µM, respectively.
In general, Kd refers to the equilibrium constant for the complex coming apart. A higher Kd goes with lower affinity. On to `O=C(O)CCCNc1ncnc2c1ncn2[C@@H]1O[C@H](COP(=O)(O)O)[C@@H](O)[C@H]1O` [Compound 14, N ^6-(3-carboxypropyl)adenosine 5'-monophosphate], for which, on rat DNPH1 [4], the affinity, expressed as Kd, was 9.4 ± 0.1 µM; the “-T∆S” value is 5.5 kcal/mol; the “∆G” value is -6.9 kcal/mol; the “∆H” value is -12.4 ± 0.1 kcal/mol. The “∆S” value at rat DNPH1 [4] is given as -18.5 cal.K^1.mol^-1. Moreover, at human DNPH1 [5], the Kd was 5.5 ± 0.1 µM, the “-T∆S” value amounted to 2.6 kcal/mol, the “∆G” value is -7.2 kcal/mol and the “∆H” value was -9.8 ± 0.1 kcal/mol. Also, the “∆S” value at human DNPH1 [5] is -8.8 cal.K^-1.mol^-1. The same compound returned a Ki on rat DNPH1 [2] of 11.2 µM. In addition, the Ki at human DNPH1 [3] is 2.1 ± 0.2 µM.
Consider `O=P(O)(O)OC[C@H]1O[C@@H](n2cnc3c(NCCc4ccccc4)ncnc32)[C@H](O)[C@@H]1O` [Compound 12, N ^6-Phenylethyladenosine 5'-monophosphate], for which the figures for the Ki on rat DNPH1 [2] and at human DNPH1 [3] were 2.9 ± 0.3 µM and 7.8 ± 1 µM, respectively.
In the case of `Nc1ccn([C@H]2C[C@H](O)[C@@H](COP(=O)(O)O)O2)c(=O)n1` [dCMP], at human DNPH1 [1], the turnover number (kcat) is reported as 8.3 ± 0.4 10^-3 s^-1 and the Km was found to be 2500 ± 207 µM.
In the case of `O=P(O)(O)OC[C@H]1O[C@@H](n2cnc3c(NC4CCCC4)ncnc32)[C@H](O)[C@@H]1O` [Compound 7, N ^6-cyclopentyladenosine 5’-monophosphate], on rat DNPH1 [4], the Kd was found to be 0.6 ± 0.1 µM, the “-T∆S” value was found to be 2.3 kcal/mol, the “∆G” value was -8.5 kcal/mol and the “∆H” value is -10.7 ± 0.1 kcal/mol. For the same compound, the “∆S” value on rat DNPH1 [4] is listed as -7.5 cal.K^1.mol^-1. At human DNPH1 [5], the dissociation constant Kd was 1.4 ± 0.4 µM, the “-T∆S” value was -1.8 kcal/mol, the “∆G” value was -8.0 kcal/mol and the “∆H” value is -6.1 ± 0.1 kcal/mol. In addition, the “∆S” value at human DNPH1 [5] is recorded as 6.2 cal.K^-1.mol^-1. On rat DNPH1 [2], this compound showed a Ki of 1.2 ± 0.1 µM. The same compound registered a Ki at human DNPH1 [3] of 2.6 ± 0.3 µM.
`Nc1nc2c(ncn2[C@@H]2O[C@H](COP(=O)(O)O)[C@@H](O)[C@H]2O)c(=O)[nH]1` [GMP]: the free energy on rat DNPH1 [6] was -6.8 kcal/mol.
Turning to `O=c1ccn([C@H]2C[C@H](O)[C@@H](COP(=O)(O)O)O2)c(=O)[nH]1` [dUMP], at human DNPH1 [1], the kcat is listed as 200 ± 20 10^-3 s^-1 and the Km was 7800 ± 1760 µM.
`C/C(=C\CNc1ncnc2c1ncn2[C@@H]1O[C@H](COP(=O)(O)O)[C@@H](O)[C@H]1O)CO` [Compound 2, trans-zeatin riboside 5’-monophosphate]: the Ki on rat DNPH1 [2] came to 15.5 ± 1 µM; at human DNPH1 [3] it was 8 ± 1.4 µM. The “decrease in activity compared to 1” value at rat DNPH1 [2] (hydroxyl group on the C4 chain) is “up to 5 fold”.
As for `O=P(O)(O)OC[C@H]1O[C@@H](n2cnc3c(NC4CCC4)ncnc32)[C@H](O)[C@@H]1O` [Compound 9, N ^6-Cyclobutyladenosine 5'-monophosphate], the inhibition constant (Ki) on rat DNPH1 [2] is 1.3 ± 0.1 µM; on human DNPH1 [3], 1.5 ± 0.1 µM.
For `O=P(O)(O)OC[C@H]1O[C@@H](n2cnc3c(NC4CCCCC4)ncnc32)[C@H](O)[C@@H]1O` [Compound 8, N ^6-Cyclohexyladenosine 5'-monophosphate], on rat DNPH1 [4], the Kd came out at 0.5 ± 0.1 µM, the “-T∆S” value was 11.2 kcal/mol, the “∆G” value is -8.7 kcal/mol and the “∆H” value was -19.9 ± 0.1 kcal/mol. The “∆S” value on rat DNPH1 [4] is -37.6 cal.K^1.mol^-1. On rat DNPH1 [2], this compound gave an inhibitory constant (Ki) of 1.2 ± 0.1 µM. In addition, the affinity at human DNPH1 [3], expressed as Ki, was 1.6 ± 0.3 µM.
`Nc1ncnc2c1ncn2[C@H]1C[C@H](O)[C@@H](COP(=O)(O)O)O1` [dAMP]: at human DNPH1 [1], the turnover number (kcat) is given as 2.5 ± 0.8 10^-3 s^-1 and the Km was found to be 97 ± 14 µM.
With `Nc1nc2c(ncn2[C@H]2C[C@H](O)[C@@H](COP(=O)(O)O)O2)c(=O)[nH]1` [dGMP, 2’-Deoxyguanosine 5’-monophosphate], the kcat on human DNPH1 [1] was 0.002 s⁻¹.
On to `O=C(O)CCNc1ncnc2c1ncn2[C@@H]1O[C@H](COP(=O)(O)O)[C@@H](O)[C@H]1O` [Compound 13, N ^6-(2-carboxyethyl)adenosine 5'-monophosphate], for which the Ki on rat DNPH1 [2] came to 6.2 ± 0.7 µM; on human DNPH1 [3], 5.6 ± 0.5 µM.
The matching figures for `O=P(O)(O)OC[C@H]1O[C@@H](n2cnc3c(NC4CC4)ncnc32)[C@H](O)[C@@H]1O` [Compound 10, N ^6-Cyclopropyladenosine 5'-monophosphate]: 2 ± 0.6 µM and 2.8 ± 0.6 µM.
As for `O=P(O)(O)OC[C@H]1O[C@@H](n2cnc3c(NCc4ccco4)ncnc32)[C@H](O)[C@@H]1O` [Compound 5, kinetin riboside 5’-monophosphate], on rat DNPH1 [4], the Kd is 0.8 ± 0.1 µM, the “-T∆S” value came out at 17.4 kcal/mol, the “∆G” value was -8.3 kcal/mol and the “∆H” value is -25.7 ± 0.1 kcal/mol. Moreover, the “∆S” value on rat DNPH1 [4] is listed as -58.3 cal.K^1.mol^-1. At human DNPH1 [5], the Kd is 1.4 ± 0.1 µM, the “-T∆S” value came to 12.6 kcal/mol, the “∆G” value was -7.5 kcal/mol and the “∆H” value is -20.1 ± 0.1 kcal/mol. Besides, on human DNPH1 [5], the “∆S” value was -42.4 cal.K^-1.mol^-1. In addition, the Ki on rat DNPH1 [2] stood at 1.8 ± 0.7 µM. The same compound gave a Ki at human DNPH1 [3] of 2.2 ± 0.2 µM.
Take `Cc1cn([C@H]2C[C@H](O)[C@@H](COP(=O)(O)O)O2)c(=O)[nH]c1=O` [dTMP]: at human DNPH1 [1], the kcat was 25 ± 2 10^-3 s^-1 and the Michaelis constant (Km) amounted to 23000 ± 3050 µM.
Turning to `CC(C)=CCNc1ncnc2c1ncn2[C@@H]1O[C@H](COP(=O)(O)O)[C@@H](O)[C@H]1O` [Compound 1, N ^6-Isopentenyl adenosine 5’-monophosphate], at rat DNPH1 [4], the Kd was 2.6 ± 0.1 µM, the “-T∆S” value is 8.3 kcal/mol, the “∆G” value is -7.6 kcal/mol and the “∆H” value is -15.9 ± 0.1 kcal/mol. Moreover, the “∆S” value on rat DNPH1 [4] is listed as -27.9 cal.K^1.mol^-1. On human DNPH1 [5], the equilibrium dissociation constant (Kd) came to 2.1 ± 0.2 µM, the “-T∆S” value was 2.4 kcal/mol, the “∆G” value was -7.8 kcal/mol and the “∆H” value was -10.2 ± 0.1 kcal/mol. Moreover, on human DNPH1 [5], the “∆S” value is given as -8.2 cal.K^-1.mol^-1. In addition, the Ki on rat DNPH1 [2] came to 3.3 µM. Also, at human DNPH1 [3], the affinity, expressed as Ki, was 2 µM.
Turning to `CC(CO)CCNc1ncnc2c1ncn2[C@@H]1O[C@H](COP(=O)(O)O)[C@@H](O)[C@H]1O` (stereo partly shown) [Compound 4, dihydrozeatin riboside 5’-monophosphate], the values for the inhibition constant (Ki) at rat DNPH1 [2] and at human DNPH1 [3] were 7.6 ± 1.5 µM and 3.9 ± 1 µM, respectively.
